These results are taken from ChEMBL document CHEMBL1773070, “Benzophenone-based derivatives: a novel series of potent and selective dual inhibitors of acetylcholinesterase and acetylcholinesterase-induced beta-amyloid aggregation” (Eur J Med Chem, 2011).

The term IC50 denotes the point on the concentration scale where inhibition reaches its midpoint.

The target of one assay is Acetylcholinesterase (Homo sapiens, UniProt P22303). The assay is described as follows: Inhibition of human AChE using acetylthiocholine iodide as substrate by Ellman's assay. In general terms: DTNB colorimetry detects thiols as they appear.
The target of the next assay is Cholinesterase (Homo sapiens, UniProt P06276). The assay is described as follows: Inhibition of human BChE using butyrylthiocholine iodide as substrate by Ellman's method.
Sequence of Cholinesterase (P06276 whole entry): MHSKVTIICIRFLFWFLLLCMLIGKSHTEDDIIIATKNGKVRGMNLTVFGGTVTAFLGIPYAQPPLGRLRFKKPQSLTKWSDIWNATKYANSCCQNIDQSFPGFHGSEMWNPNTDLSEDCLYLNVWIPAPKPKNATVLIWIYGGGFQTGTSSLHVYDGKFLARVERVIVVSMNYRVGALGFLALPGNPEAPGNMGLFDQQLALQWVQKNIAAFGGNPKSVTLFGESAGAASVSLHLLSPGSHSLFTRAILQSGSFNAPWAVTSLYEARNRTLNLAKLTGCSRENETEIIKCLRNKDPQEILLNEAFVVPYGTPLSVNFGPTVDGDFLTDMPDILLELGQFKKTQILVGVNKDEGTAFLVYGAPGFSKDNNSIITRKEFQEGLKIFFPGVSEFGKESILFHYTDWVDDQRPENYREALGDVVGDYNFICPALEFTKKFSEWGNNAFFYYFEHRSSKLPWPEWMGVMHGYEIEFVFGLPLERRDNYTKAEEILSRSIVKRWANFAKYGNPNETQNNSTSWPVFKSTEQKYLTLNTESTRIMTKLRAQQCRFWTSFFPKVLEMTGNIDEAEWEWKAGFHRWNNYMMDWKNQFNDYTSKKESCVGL

Sequence of Acetylcholinesterase (P22303 whole entry): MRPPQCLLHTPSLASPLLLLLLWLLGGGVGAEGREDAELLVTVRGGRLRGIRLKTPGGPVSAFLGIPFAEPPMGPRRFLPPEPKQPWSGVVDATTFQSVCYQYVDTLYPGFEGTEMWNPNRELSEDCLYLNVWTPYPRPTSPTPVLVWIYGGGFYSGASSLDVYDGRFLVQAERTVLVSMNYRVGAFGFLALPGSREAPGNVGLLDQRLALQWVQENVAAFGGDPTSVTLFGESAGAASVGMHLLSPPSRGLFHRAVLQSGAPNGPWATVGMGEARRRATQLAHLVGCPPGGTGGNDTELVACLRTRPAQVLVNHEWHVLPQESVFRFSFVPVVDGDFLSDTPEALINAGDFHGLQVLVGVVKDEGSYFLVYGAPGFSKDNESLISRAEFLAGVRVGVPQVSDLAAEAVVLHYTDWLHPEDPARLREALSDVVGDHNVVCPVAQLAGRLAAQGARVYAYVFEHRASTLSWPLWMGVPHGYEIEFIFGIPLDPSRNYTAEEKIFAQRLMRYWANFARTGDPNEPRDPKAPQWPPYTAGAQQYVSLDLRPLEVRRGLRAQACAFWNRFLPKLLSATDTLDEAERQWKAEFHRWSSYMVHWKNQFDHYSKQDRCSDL

Turning to `CCN(CC)CC(=O)Nc1ccc(C(=O)c2ccc(CN(C)Cc3ccccc3)cc2)cc1`, the IC50 on Acetylcholinesterase was 0.21 µM; on Cholinesterase it was 144 µM. For the compound `CN(Cc1ccccc1)Cc1ccc(C(=O)c2ccc(NC(=O)CN3CCCCC3)cc2)cc1`, the IC50 at Acetylcholinesterase worked out at 0.55 µM; on Cholinesterase, 145 µM.

`CN(Cc1ccccc1)Cc1ccc(C(=O)c2ccc(NC(=O)CN3CCOCC3)cc2)cc1`: the 50% inhibitory concentration (IC50) at Acetylcholinesterase came to 0.72 µM; on Cholinesterase it was 179 µM.

As to `CN(Cc1ccccc1)Cc1ccc(C(=O)c2ccc(NC(=O)CCCCN3CCCCC3)cc2)cc1`, the figures for the IC50 against Acetylcholinesterase and at Cholinesterase were 0.217 µM and 68 µM, respectively. On to `CCN(CC)CCCOc1ccc(C(=O)c2ccc(CN(C)Cc3ccccc3)cc2)cc1`, for which the IC50 was found to be 0.025 µM at Acetylcholinesterase and 35 µM on Cholinesterase. For `CN(Cc1ccccc1)Cc1ccc(C(=O)c2ccc(OCCCN3CCCCC3)cc2)cc1`, the IC50 against Acetylcholinesterase was 0.024 µM; on Cholinesterase, 11 µM. For `CN(Cc1ccccc1)Cc1ccc(C(=O)c2ccc(OCCCN3CCOCC3)cc2)cc1`, the IC50 on Acetylcholinesterase is 0.107 µM; at Cholinesterase, 21 µM.

Regarding `CN(Cc1ccccc1)Cc1ccc(C(=O)c2ccc(OCCCN3CCC(n4c(=O)[nH]c5ccccc54)CC3)cc2)cc1`, the IC50 against Acetylcholinesterase is 0.068 µM; against Cholinesterase, 39 µM.

As for `CCN(CC)CCCCCOc1ccc(C(=O)c2ccc(CN(C)Cc3ccccc3)cc2)cc1`, the IC50 at Acetylcholinesterase was 0.144 µM; at Cholinesterase, 34 µM.

Turning to `CN(Cc1ccccc1)Cc1ccc(C(=O)c2ccc(OCCCCCN3CCCCC3)cc2)cc1`, the IC50 came out at 0.143 µM on Acetylcholinesterase and 10.4 µM against Cholinesterase. On to `CCN(CC)CCCCCCOc1ccc(C(=O)c2ccc(CN(C)Cc3ccccc3)cc2)cc1`, for which the IC50 at Acetylcholinesterase worked out at 0.257 µM; on Cholinesterase, 21.9 µM. For `CN(Cc1ccccc1)Cc1ccc(C(=O)c2ccc(OCCCCCCN3CCCCC3)cc2)cc1` the same measures were 0.21 µM and 9.7 µM.

Regarding `CCN(CC)CCCCCCCOc1ccc(C(=O)c2ccc(CN(C)Cc3ccccc3)cc2)cc1`, the IC50 on Acetylcholinesterase came out at 0.81 µM; against Cholinesterase, 23 µM. In the case of `CN(Cc1ccccc1)Cc1ccc(C(=O)c2ccc(OCCCCCCCN3CCCCC3)cc2)cc1`, the IC50 against Acetylcholinesterase was found to be 0.11 µM; against Cholinesterase, 24.2 µM. For `CCN(CC)CCc1ccc(Oc2ccc(C(=O)c3ccc(CN(C)Cc4ccccc4)cc3)cc2)cc1` the same measures were 0.13 µM and 209 µM. On Cholinesterase, `COc1ccc(C(=O)c2ccc(CN(C)Cc3ccccc3)cc2)cc1` registered an IC50 of more than 10 µM.
